Results as given in ChEMBL document CHEMBL2424644, “Synthesis and antiproliferative evaluation of novel benzoimidazole-contained oxazole-bridged analogs of combretastatin A-4” (Eur J Med Chem, 2013).

Assays:
A549 = test: Cytotoxicity against human A549 cells assessed as growth inhibition after 72 hrs by MTT assay; format: functional, cell-based; conditions: A549, 72 h
BXPC-3 [1] = test: Cytotoxicity against human BxPC3 cells assessed as growth inhibition after 72 hrs by MTT assay; format: functional, cell-based; conditions: BXPC-3, 72 h
MCF7 [2] = test: Cytotoxicity against human MCF7 cells assessed as growth inhibition after 72 hrs by MTT assay; format: functional, cell-based; conditions: MCF7, 72 h
HT-29 [3] = test: Cytotoxicity against human HT-29 cells assessed as growth inhibition after 72 hrs by MTT assay; format: functional, cell-based; conditions: HT-29, 72 h
HepG2 = test: Cytotoxicity against human HepG2 cells assessed as growth inhibition after 72 hrs by MTT assay; format: functional, cell-based; conditions: HepG2, 72 h
MX1 [4] = test: Cytotoxicity against taxol-resistant human MX1 cells assessed as growth inhibition after 72 hrs by MTT assay; format: functional, cell-based; conditions: MX1, 72 h
KB [5] = test: Cytotoxicity against human KB cells assessed as growth inhibition after 72 hrs by MTT assay; format: functional, cell-based
KB [6] = test: Cytotoxicity against vincristine-resistant human KB cells assessed as growth inhibition after 72 hrs by MTT assay; format: functional, cell-based
MX1 [7] = test: Cytotoxicity against human MX1 cells assessed as growth inhibition after 72 hrs by MTT assay; format: functional, cell-based; conditions: MX1, 72 h
HT-29 [8] = test: Cell cycle arrest in human HT-29 cells assessed as accumulation at G2/M phase at 100 nM after 24 hrs by propidium iodide staining-based flow cytometric analysis (reference value: 7.37%); format: functional
H22 [9] = test: Antitumor activity against mouse H22 cells allografted in KM mouse assessed as tumor growth inhibition at 7.5 mg/kg, ip administered on day 1 to 7 measured on day 8 relative to control; format: functional; conditions: route intraperitoneal, read-out: TGI
HT-29 [10] = test: Cell cycle arrest in human HT-29 cells assessed as accumulation at G0/G1 phase at 50 nM after 24 hrs by propidium iodide staining-based flow cytometric analysis (reference value: 68.24%); format: functional
H22 [11] = test: Antitumor activity against mouse H22 cells allografted in KM mouse assessed as tumor growth inhibition at 20 mg/kg, ip administered on day 1 measured on day 8 relative to control; format: functional; conditions: route intraperitoneal, read-out: TGI
Mus musculus [12] = test: Toxicity in KM mouse allografted with mouse H22 cells assessed as body weight at 10 mg/kg, ip administered on day 1, 3, 5, 7 measured on day 8 (reference value: 30 +/- 3.24 g); format: organism-based; parameters: dose 10 mg/kg, route intraperitoneal; conditions: in vivo
HT-29 [13] = test: Cell cycle arrest in human HT-29 cells assessed as accumulation at S phase at 50 nM after 24 hrs by propidium iodide staining-based flow cytometric analysis (reference value: 24.39%); format: functional
HT-29 [14] = test: Cell cycle arrest in human HT-29 cells assessed as accumulation at G2/M phase at 12.5 nM after 24 hrs by propidium iodide staining-based flow cytometric analysis (reference value: 7.37%); format: functional
HT-29 [15] = test: Potency index, ratio of combretastatin A-4 IC50 to compound IC50 for human HT-29 cells; format: functional
Mus musculus [16] = test: Toxicity in KM mouse allografted with mouse H22 cells assessed as body weight at 20 mg/kg, ip administered on day 1 measured on day 8 (reference value: 30 +/- 3.24 g); format: organism-based; parameters: dose 20 mg/kg, route intraperitoneal; conditions: in vivo
Tubulin = test: Inhibition of tubulin (unknown origin) polymerization measured for 60 mins; format: protein-complex assay, Homo sapiens
Mus musculus [17] = test: Toxicity in KM mouse allografted with mouse H22 cells assessed as body weight at 15 mg/kg, ip administered on day 1 and 4 measured on day 8 (reference value: 30 +/- 3.24 g); format: organism-based; parameters: dose 15 mg/kg, route intraperitoneal; conditions: in vivo
HT-29 [18] = test: Cell cycle arrest in human HT-29 cells assessed as accumulation at S phase at 12.5 nM after 24 hrs by propidium iodide staining-based flow cytometric analysis (reference value: 24.39%); format: functional
HT-29 [19] = test: Cell cycle arrest in human HT-29 cells assessed as accumulation at G0/G1 phase at 100 nM after 24 hrs by propidium iodide staining-based flow cytometric analysis (reference value: 68.24%); format: functional
BXPC-3 [20] = test: Potency index, ratio of vincristine IC50 to compound IC50 for human BxPC3 cells; format: functional
HT-29 [21] = test: Cell cycle arrest in human HT-29 cells assessed as accumulation at S phase at 100 nM after 24 hrs by propidium iodide staining-based flow cytometric analysis (reference value: 24.39%); format: functional
H22 [22] = test: Antitumor activity against mouse H22 cells allografted in KM mouse assessed as tumor growth inhibition at 10 mg/kg, ip administered on day 1, 3, 5, 7 measured on day 8 relative to control; format: functional; conditions: route intraperitoneal, read-out: TGI
H22 [23] = test: Antitumor activity against mouse H22 cells allografted in KM mouse assessed as tumor growth inhibition at 15 mg/kg, ip administered on day 1 and 4 measured on day 8 relative to control; format: functional; conditions: route intraperitoneal, read-out: TGI
HT-29 [24] = test: Cell cycle arrest in human HT-29 cells assessed as accumulation at G2/M phase after 24 hrs by propidium iodide staining-based flow cytometric analysis; format: functional
HT-29 [25] = test: Cell cycle arrest in human HT-29 cells assessed as accumulation at G0/G1 phase at 12.5 nM after 24 hrs by propidium iodide staining-based flow cytometric analysis (reference value: 68.24%); format: functional
HT-29 [26] = test: Cell cycle arrest in human HT-29 cells assessed as accumulation at G2/M phase at 50 nM after 24 hrs by propidium iodide staining-based flow cytometric analysis (reference value: 7.37%); format: functional
MCF7 [27] = test: Potency index, ratio of combretastatin A-4 IC50 to compound IC50 for human MCF7 cells; format: functional
Mus musculus [28] = test: Toxicity in KM mouse allografted with mouse H22 cells assessed as body weight at 7.5 mg/kg, ip administered on day 1 to 7 measured on day 8 (reference value: 30 +/- 3.24 g); format: organism-based; parameters: dose 7.5 mg/kg, route intraperitoneal; conditions: in vivo

For `COc1cc(-c2ncoc2-c2ccc(OC)c3ncn(CC(N)=O)c23)cc(OC)c1OC`, the IC50 (A549) was over 5000 nM, the IC50 (BXPC-3 [1]) was 1390 nM and the IC50 (MCF7 [2]) was 2050 nM. It also gave an IC50 (HT-29 [3]) of 1600 nM and an IC50 (HepG2) of 870 nM.
Molecule `COc1cc(-c2ncoc2-c2ccc(OC)c3ncn(CCO)c23)cc(OC)c1OC` has an IC50 (MCF7 [2]) of 540 nM, an IC50 (HT-29 [3]) of 180 nM and an IC50 (HepG2) of 130 nM.
Molecule `CCOC(=O)Cn1cnc2c(-c3ocnc3-c3cc(OC)c(OC)c(OC)c3)ccc(OC)c21` has an IC50 (A549) of over 500 nM, an IC50 (BXPC-3 [1]) of over 500 nM and an IC50 (MCF7 [2]) of over 500 nM. The IC50 (HT-29 [3]) was over 500 nM and the IC50 (HepG2) was over 500 nM.
`COc1cc(-c2ncoc2-c2ccc(OC)c3c2ncn3CC(N)=O)cc(OC)c1OC` was tested, and the IC50 (MCF7 [2]) was over 10000 nM, the IC50 (HT-29 [3]) was over 10000 nM and the IC50 (HepG2) was 990 nM.
Work on `COc1cc(-c2ncoc2-c2ccc(OC)c3ncn(CC#N)c23)cc(OC)c1OC` yielded an IC50 (A549) of over 5000 nM, an IC50 (BXPC-3 [1]) of 1390 nM and an IC50 (MCF7 [2]) of 2050 nM. The IC50 (HT-29 [3]) was 1600 nM and the IC50 (HepG2) was 870 nM.
`COc1cc(-c2ncoc2-c2ccc(OC)c3ncn(CCCO)c23)cc(OC)c1OC` gave an IC50 (MCF7 [2]) of 500 nM, an IC50 (MX1 [4]) of over 10000 nM and an IC50 (KB [5]) of 346 nM. For the same molecule, the IC50 (KB [6]) was over 10000 nM, the IC50 (MX1 [7]) was 3780 nM and the IC50 (HT-29 [3]) was 290 nM. For the same molecule, the IC50 (HepG2) was 310 nM.
Work on `COc1cc(-c2ncoc2-c2ccc(OC)c3c2ncn3C)cc(OC)c1OC` yielded an IC50 (A549) of 9.6 nM, an IC50 (BXPC-3 [1]) of 56 nM and an IC50 (MCF7 [2]) of 39 nM. For the same molecule, the IC50 (MX1 [4]) was 12800 nM, the IC50 (KB [5]) was 41 nM and the IC50 (KB [6]) was 27 nM. It also gave an IC50 (MX1 [7]) of 334 nM, an IC50 (HT-29 [3]) of 14 nM and an IC50 (HepG2) of 29 nM.
Work on `COc1cc(-c2ncoc2-c2ccc(OC)c3c2ncn3CCO)cc(OC)c1OC` yielded an IC50 (MCF7 [2]) of 510 nM, an IC50 (HT-29 [3]) of 170 nM and an IC50 (HepG2) of 250 nM.
In the case of `CCOC(=O)Cn1cnc2c(OC)ccc(-c3ocnc3-c3cc(OC)c(OC)c(OC)c3)c21`, the IC50 (A549) is reported as 23.4 nM, the IC50 (BXPC-3 [1]) is reported as over 500 nM and the IC50 (MCF7 [2]) is reported as 419 nM. The IC50 (HT-29 [3]) was 350 nM and the IC50 (HepG2) was 500 nM.
For `COc1cc(-c2ncoc2-c2ccc(OC)c3[nH]cnc23)cc(OC)c1OC`, the Activity (HT-29 [8]) was 44.25%, the IC50 (BXPC-3 [1]) was 31 nM and the IC50 (MCF7 [2]) was 25 nM. For the same molecule, the inhibition in vivo at 7.5 mg/kg (H22 [9]) was 55%, the Activity (HT-29 [10]) was 29.54% and the inhibition in vivo at 20 mg/kg (H22 [11]) was 42%. It also gave an Activity (Mus musculus [12]) of 28.4 g, an Activity (HT-29 [13]) of 34.83% and an Activity (HT-29 [14]) of 14.75%. The “Ratio IC50” value (HT-29 [15]) was 32, the Activity (Mus musculus [16]) was 30.4 g and the IC50 (MX1 [4]) was 249 nM. The IC50 (Tubulin) was 390 nM, the Activity (Mus musculus [17]) was 24.4 g and the Activity (HT-29 [18]) was 24.97%. For the same molecule, the Activity (HT-29 [19]) was 25.71%, the “Ratio IC50” value (BXPC-3 [20]) was 16 and the IC50 (KB [5]) was 16 nM. It also gave an Activity (HT-29 [21]) of 30.04%, an inhibition in vivo at 10 mg/kg (H22 [22]) of 52% and an IC50 (KB [6]) of 65 nM. The inhibition in vivo at 15 mg/kg (H22 [23]) was 66%, the Activity (HT-29 [24]) was “Dose-dependent effect” and the IC50 (MX1 [7]) was 397 nM. For the same molecule, the Activity (HT-29 [25]) was 50.29%, the IC50 (HT-29 [3]) was 8.4 nM and the Activity (HT-29 [26]) was 35.63%. The “Ratio IC50” value (MCF7 [27]) was 8 and the Activity (Mus musculus [28]) was 25.5 g.
